From patent publication US20190367516A1 (Bayer Pharma Aktiengesellschaft, priority 2015, published 2019)
Like-named read-outs stand apart in the source and are kept apart here. Values belong to the compound of their own block, whether it stands above or below them.

Target: T1, human M2 receptor (Homo sapiens, UniProt P08172)
T1 sequence (P08172 1-466): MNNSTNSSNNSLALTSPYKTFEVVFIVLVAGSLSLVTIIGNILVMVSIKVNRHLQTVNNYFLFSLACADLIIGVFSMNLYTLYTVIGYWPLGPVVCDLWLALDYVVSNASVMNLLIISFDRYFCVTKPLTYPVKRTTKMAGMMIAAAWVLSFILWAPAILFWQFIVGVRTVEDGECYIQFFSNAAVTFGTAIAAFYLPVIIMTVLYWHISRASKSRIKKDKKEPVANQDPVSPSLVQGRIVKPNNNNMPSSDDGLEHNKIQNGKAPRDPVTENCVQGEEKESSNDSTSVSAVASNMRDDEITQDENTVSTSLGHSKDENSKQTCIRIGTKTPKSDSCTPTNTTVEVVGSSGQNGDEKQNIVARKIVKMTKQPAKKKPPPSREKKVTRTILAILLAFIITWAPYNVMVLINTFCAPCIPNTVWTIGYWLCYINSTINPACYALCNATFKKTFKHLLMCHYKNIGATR
Conditions: for Emax: read-out: Efficiency, boosting of the acetylcholine effect at EC20 acetylcholine concentration; for Efficiency: boosting of the acetylcholine effect at EC20 acetylcholine concentration

[1] = Receptor activity EC50, allosteric potency at EC20 acetylcholine, M2-GIRK1/4 reporter cells, in some cases mean of two or more determinations
[2] = Receptor activity EC50, M2-GIRK1/4 activation test, acetylcholine at EC20, allosteric potency, in some cases mean values from two or more determinations

Compound: CC[C@H](NC(=O)c1cn(-c2c(F)cccc2F)c2nc(N3CC4CC4(O)C3)ccc2c1=O)C(F)(F)F (mixture of isomers) [Example 417, 1-(2,6-Difluorophenyl)-7-[1-hydroxy-3-azabicyclo[3.1.0]hex-3-yl]-4-oxo-N-[(2S)-1,1,1-trifluorobutan-2-yl]-1,4-dihydro-1,8-naphthyridine-3-carboxamide]
- EC50 [1]: 24 nM
- Emax (M2-GIRK1/4 reporter cells): 100%

Compound: O=C(N[C@@H](C1CC1)C(F)(F)F)c1cn(-c2c(F)cc(F)cc2F)c2nc(N3CC(O)C4(CC4)C3)ccc2c1=O (single isomer, unassigned) [Example 602]
- EC50 [1]: 23 nM
- Efficiency (M2-GIRK1/4 reporter cells): 91.5%

Compound: CC(C)(NC(=O)c1cn(-c2c(F)cc(F)cc2F)c2nc(N3C[C@@H](O)CC3=O)ccc2c1=O)C1CC1 [Example 481, N-(2-Cyclopropylpropan-2-yl)-7-[(4S)-4-hydroxy-2-oxopyrrolidin-1-yl]-4-oxo-1-(2,4,6-trifluorophenyl)-1,4-dihydro-1,8-naphthyridine-3-carboxamide]
- EC50 [1]: 10 nM
- Emax (M2-GIRK1/4 reporter cells): 100%

Compound: CC(C)Nc1ccc2c(=O)c(C(=O)NC34CCC(CC3)CC4)cn(-c3ccc(F)cc3F)c2n1 [compound 159]
- EC50 [2]: 117 nM

Compound: CC[C@H](NC(=O)c1cn(-c2c(F)cc(F)cc2F)c2nc(N(C)C[C@H](C)O)ccc2c1=O)C(F)(F)F [Example 497]
- EC50 [1]: 29 nM
- Emax (M2-GIRK1/4 reporter cells): 92%

Compound: C[C@@H](O)CNc1ccc2c(=O)c(C(=O)N[C@@H](C3CC3)C(F)(F)F)cn(-c3c(F)cc(F)cc3F)c2n1 [Example 378, N-[(1S)-1-Cyclopropyl-2,2,2-trifluoroethyl]-7-{[(2R)-2-hydroxypropyl]amino}-4-oxo-1-(2,4,6-trifluorophenyl)-1,4-dihydro-1,8-naphthyridine-3-carboxamide]
- EC50 [2]: 81 nM

Compound: Cc1cccc(C)c1CNC(=O)c1cn(-c2ccc(F)cc2F)c2nc(N(C)C)ccc2c1=O [Example 51, 1-(2,4-Difluorophenyl)-7-(dimethylamino)-N-(2,6-dimethylbenzyl)-4-oxo-1,4-dihydro-1,8-naphthyridine-3-carboxamide]
- EC50 [2]: 100 nM

Compound: CC[C@@H](NC(=O)c1cn(-c2c(F)cc(F)cc2Cl)c2nc(N3CC4CC4(O)C3)ccc2c1=O)C(F)(F)F (stereo partly drawn) [Example 406, 1-(2-Chloro-4,6-difluorophenyl)-7-[1-hydroxy-3-azabicyclo[3.1.0]hex-3-yl]-4-oxo-N-[(2R)-1,1,1-trifluorobutan-2-yl]-1,4-dihydro-1,8-naphthyridine-3-carboxamide]
- EC50 [1]: 9 nM
- Emax (M2-GIRK1/4 reporter cells): 88%

Compound: CN(C)c1ccc2c(=O)c(C(=O)NC34CC5CC(C3)C(F)(F)C(C5)C4)cn(-c3ccc(F)cc3Cl)c2n1 [Example 40, 1-(2-Chloro-4-fluorophenyl)-N-(4,4-difluorotricyclo[3.3.1.1^3,7]dec-1-yl)-7-(dimethylamino)-4-oxo-1,4-dihydro-1,8-naphthyridine-3-carboxamide]
- EC50 [2]: 106 nM

Compound: O=C(NC12CC3CC(CC(C3)C1)C2)c1cn(-c2ccc(F)cc2F)c2nc(N3CC[C@H](F)C3)ccc2c1=O [Example 61, 1-(2,4-Difluorophenyl)-7-[(3S)-3-fluoropyrrolidin-1-yl]-4-oxo-N-(tricyclo[3.3.1.1^3,7]dec-1-yl)-1,4-dihydro-1,8-naphthyridine-3-carboxamide]
- EC50 [2]: 16 nM

Compound: O=C(N[C@@H](C1CC1)C(F)(F)F)c1cn(-c2c(F)cc(F)cc2F)c2nc(N3CCC(O)C(O)C3)ccc2c1=O (mixture of isomers) [Example 615, N-[(1 S)-1-Cyclopropyl-2,2,2-trifluoroethyl]-7-[trans-3,4-dihydroxypiperidin-1-yl]-4-oxo-1-(2,4,6-trifluorophenyl)-1,4-dihydro-1,8-naphthyridine-3-carboxamide]
- EC50 [1]: 53 nM
- Emax (M2-GIRK1/4 reporter cells): 99.3%

The next lines start with the values.

- EC50 [1]: 43 nM
- Emax (M2-GIRK1/4 reporter cells): 93%
Compound: CC(NC(=O)c1cn(-c2ccc(F)cc2F)c2nc(N3C[C@@H](O)CC3=O)ccc2c1=O)C(F)(F)C(F)(F)F (mixture of isomers) [Example 622, 1-(2,4-Difluorophenyl)-7-[(4S)-4-hydroxy-2-oxopyrrolidin-1-yl]-4-oxo-N-[3,3,4,4,4-pentafluorobutan-2-yl]-1,4-dihydro-1,8-naphthyridine-3-carboxamide]

- EC50 [2]: 14 nM
Compound: C[C@H](NC(=O)c1cn(-c2c(F)cc(F)cc2F)c2nc(N3CC4CC4(O)C3)ccc2c1=O)C(F)(F)F (single isomer, unassigned) [Example 318]

- EC50 [2]: 23 nM
Compound: C[C@@H]1CN(c2ccc3c(=O)c(C(=O)N[C@@H](C)COC(F)(F)F)cn(-c4c(F)cc(F)cc4F)c3n2)C(=O)N1 [Example 381, 7-[(4R)-4-Methyl-2-oxoimidazolidin-1-yl]-4-oxo-N-[(2S)-1-(trifluoromethoxy)propan-2-yl]-1-(2,4,6-trifluorophenyl)-1,4-dihydro-1,8-naphthyridine-3-carboxamide]

- EC50 [1]: 10 nM
- Emax (M2-GIRK1/4 reporter cells): 91%
Compound: O=C(NC(CC(F)(F)F)C1CC1)c1cn(-c2c(F)cc(F)cc2F)c2nc(N3C[C@@H](O)CC3=O)ccc2c1=O (single isomer, unassigned) [Example 513]

- EC50 [1]: 60 nM
- Emax (M2-GIRK1/4 reporter cells): 83.5%
Compound: CC[C@H](NC(=O)c1cn(-c2c(F)cc(F)cc2F)c2nc(N3CC4(COC4)C3)ccc2c1=O)C(F)(F)F [Example 498]

- EC50 [2]: 13 nM
Compound: CC(C)C(NC(=O)c1cn(-c2ccc(F)cc2F)c2nc(N3CC[C@H](F)C3)ccc2c1=O)C(F)(F)F (stereo partly drawn) [Example 69, 1-(2,4-Difluorophenyl)-7-[(3S)-3-fluoropyrrolidin-1-yl]-4-oxo-N-[1,1,1-trifluoro-3-methylbutan-2-yl]-1,4-dihydro-1,8-naphthyridine-3-carboxamide]

- EC50 [1]: 69 nM
- Emax (M2-GIRK1/4 reporter cells): 91.3%
Compound: CC[C@@H](NC(=O)c1cn(-c2ccc(F)cc2F)c2nc(N3C(=O)CC(O)C3C)ccc2c1=O)C(F)(F)F (stereo partly drawn) [Example 640, 1-(2,4-Difluorophenyl)-7-[3-hydroxy-2-methyl-5-oxopyrrolidin-1-yl]-4-oxo-N-[(2R)-1,1,1-trifluorobutan-2-yl]-1,4-dihydro-1,8-naphthyridine-3-carboxamide]

- EC50 [1]: 16 nM
- Emax (M2-GIRK1/4 reporter cells): 96.5%
Compound: CC[C@H](NC(=O)c1cn(-c2c(F)cc(F)cc2Cl)c2nc(N3C[C@@H](O)[C@H](O)C3)ccc2c1=O)C(F)(F)F [Example 566, 1-(2-Chloro-4,6-difluorophenyl)-7-[(3R,4R)-3,4-dihydroxypyrrolidin-1-yl]-4-oxo-N-[(2S)-1,1,1-trifluorobutan-2-yl]-1,4-dihydro-1,8-naphthyridine-3-carboxamide]

- EC50 [1]: 74 nM
- Emax (M2-GIRK1/4 reporter cells): 85%
Compound: O=C(N[C@@H](C1CC1)C(F)(F)F)c1cn(-c2c(F)cccc2F)c2nc(N3CCNC3=O)ccc2c1=O [Example 644, N-[(1 S)-1-Cyclopropyl-2,2,2-trifluoroethyl]-1-(2,6-difluorophenyl)-4-oxo-7-(2-oxoimidazolidin-1-yl)-1,4-dihydro-1,8-naphthyridine-3-carboxamide]

- EC50 [2]: 79 nM
Compound: CC(C)CC(NC(=O)c1cn(-c2ccc(F)cc2F)c2nc(N3CCS(=O)(=O)C3)ccc2c1=O)C(F)(F)F (stereo not shown) [Example 78, 1-(2,4-Difluorophenyl)-7-(1,1-dioxido-1,3-thiazolidin-3-yl)-4-oxo-N-[1,1-trifluoro-4-methylpentan-2-yl]-1,4-dihydro-1,8-naphthyridine-3-carboxamide]

- EC50 [2]: 50 nM
Compound: C[C@@H](COC(F)(F)F)NC(=O)c1cn(-c2c(F)cc(F)cc2F)c2nc(N3C[C@@H](O)[C@H](O)C3)ccc2c1=O [Example 353, 7-[(3R,4R)-3,4-Dihydroxypyrrolidin-1-yl]-4-oxo-N-[(2S)-1-(trifluoromethoxy)propan-2-yl]-1-(2,4,6-trifluorophenyl)-1,4-dihydro-1,8-naphthyridine-3-carboxamide]

- EC50 [2]: 203 nM
Compound: CC(COC(F)(F)F)NC(=O)c1cn(-c2ccc(F)cc2F)c2nc(N3CCCC3=O)ccc2c1=O (racemic) [Example 230, rac-1-(2,4-Difluorophenyl)-4-oxo-7-(2-oxopyrrolidin-1-yl)-N-[1-(trifluoromethoxy)propan-2-yl]-1,4-dihydro-1,8-naphthyridine-3-carboxamide]

- EC50 [2]: 10 nM
Compound: CCCC(NC(=O)c1cn(-c2ccc(F)cc2F)c2nc(N3CC[C@H](F)C3)ccc2c1=O)C(F)(F)F (stereo partly drawn) [Example 66, 1-(2,4-Difluorophenyl)-7-[(3S)-3-fluoropyrrolidin-1-yl]-4-oxo-N-[1,1,1-trifluoropentan-2-yl]-1,4-dihydro-1,8-naphthyridine-3-carboxamide]

- EC50 [1]: 102 nM
- Emax (M2-GIRK1/4 reporter cells): 84.5%
Compound: O=C(N[C@@H](C1CC1)C(F)(F)F)c1cn(-c2c(F)cc(F)cc2F)c2nc(N3CCC[C@H]3CO)ccc2c1=O [Example 660, N-[(1S)-1-Cyclopropyl-2,2,2-trifluoroethyl]-7-[(2S)-2-(hydroxymethyl)pyrrolidin-1-yl]-4-oxo-1-(2,4,6-trifluorophenyl)-1,4-dihydro-1,8-naphthyridine-3-carboxamide]

- EC50 [1]: 11 nM
- Efficiency (M2-GIRK1/4 reporter cells): 100.0%
Compound: CCC(COC(F)(F)F)NC(=O)c1cn(-c2c(F)cc(F)cc2F)c2nc(N3CCNC3=O)ccc2c1=O (racemic) [Example 610, 4-Oxo-7-(2-oxoimidazolidin-1-yl)-N-[1-(trifluoromethoxy)butan-2-yl]-1-(2,4,6-trifluorophenyl)-1,4-dihydro-1,8-naphthyridine-3-carboxamide]
